In patent publication US8461305B2, “L-fucose α1→6 specific lectin” (J-Oil Mills, Inc., priority 2008, dated 2013):

Assays:
[1] = frontal affinity chromatography (FAC), association constant to PA sugar chains having other L-fucose; assay type: binding; settings: for association constant Ka: 25 degrees C.
Method: (§1) The following section will describe a method of calculating an association constant by frontal affinity chromatography (FAC). This method is based on the following principle. […] Then, the elution front end (front) is observed immediately. When there is an affinity with lectin, the elution of the sugar chain is delayed.
(§2) The preparation of a lectin column used in the apparatus is performed in the method as described below. 1. Purified lectin is dissolved in 0.1 to 0.2M of NaHCO3 buffer solution (pH 8.3 to 8.5). 2. The lectin is immobilized, via a lectin primary amino group, a carrier such as NHS activated sepharose. 3. Then, the lectin is blocked by Tris buffer solution including primary amine or ethanolamine for example. 4. Lectin-sepharose is suspended in 10 mM Tris buffer, including 0.8% of NaCl (pH 7.4, TBS). Then, lectin immobilized resin is filled in a miniature column (φ2 mm×10 mm, 31.4 μl). 5. The miniature column in which the lectin immobilized resin is filled is protected by a holder and the lectin column is connected to an FAC automatic analysis apparatus (FAC-1, SHIMADZU CORPORATION).
(§3) Then, the elution of the PA sugar chain from the column is detected by a fluorescence detector (excitation wavelength/fluorescence wavelength: 310 nm/380 nm).
(§4) Based on the detection data, by using the elution front end (Vo) of the sugar chain (PA rhamnose) not interacting with lectin as a reference, the delay (V−Vo) of the elution front end (V) of a sugar chain interacting with lectin is calculated as an interaction strength. Then, based on the following FAC criteria expressions, the association constant (Ka) between the sugar chain and lectin is calculated based on V−Vo and Bt. If the interaction strength (V−Vo value) and the association constant are higher, a higher affinity is caused between lectin and an L-fucose α1→6 sugar chain.
(§5) [In the formula, A means substance used for the elution, Ao means the initial concentration of the substance A, B means a immobilized ligand, V means the elution volume, Vo means the elution front end volume of the substance not interacting with the immobilized ligand B at all, Bt means an effective ligand amount, Kd means a dissociation constant (an inverse of the association constant)].
(§6) Pyridylaminated (PA) sugar chains shown in FIG. 1 and FIG. 2 were used to frontal affinity chromatography (FAC) analysis. PA sugars were purchased from TAKARA BIO INC., SEIKAGAKU BIOBUSINESS CORPORATION, and Masuda Chemical Industries co., LTD. PA sugar were also obtained by pyridylaminating, by GlycoTAG®(TAKARA BIO INC.), an unlabeled sugar chain or a sugar chain obtained by subjecting a sugar chain to enzyme digestion for example.
(§7) Lectin was dissolved in 0.2 M NaHCO3 buffer solution (pH 8.3) including 0.5 M NaCl and coupled to the NHS-activated sepharose (GE Healthcare Bioscience) by following the manufacturer's instructions. Then, lectin immobilized sepharose was suspended in 10 mM Tris buffer (pH 7.4, TBS) including […] and the resultant matter was filled in a miniature column (φ2 mm×10 mm, 31.4 μl).
(§8) Frontal affinity chromatography was performed using FAC automatic analysis apparatus (FAC-1, SHIMADZU CORPORATION). In particular, the above-prepared lectin column was inserted to a stainless steel holder and the holder was connected to FAC-1 apparatus. The flow rate and the column temperature were maintained at 0.125 ml/min and 25 degrees C., respectively. After the miniature column was equilibrated by the TBS, an excessive volume (0.5 ml to 4 ml) of a PA sugar chain (3.75 nM or 7.5 nM) was continuously inputted to the column using an automatic sampling apparatus.
(§9) The fluorescent strength of the eluate of the PA sugar (excitation wavelength of 310 nm and fluorescence wavelength of 380 nm) was monitored to measure the interaction strength [a difference of the front end eluate to the standard oligosaccharide (PA rhamnose): V−V0]. […]

[2] = frontal affinity chromatography (FAC), association constant to PA sugar chains without L-fucose; assay type: binding; settings: for association constant Ka: 25 degrees C.
Method: as §1, §2, §3, §4, §5, §6, §7, §8, §9

Pholiota terrestris lectin [PTL, novel L-fucose α1→6 specific lectin purified from the mushroom Pholiota terrestris]
binding to non-L-fucose α1→6 sugar chain ([1]; FAC): not bound
association constant Ka ([1]; Sugar chain No. 419): <1000 M⁻¹
association constant Ka ([1]; Sugar chain No. 420): <1000 M⁻¹
association constant Ka ([1]; Sugar chain No. 718): <1000 M⁻¹
association constant Ka ([1]; Sugar chain No. 719): <1000 M⁻¹
association constant Ka ([1]; Sugar chain No. 720): <1000 M⁻¹
association constant Ka ([1]; Sugar chain No. 721): <1000 M⁻¹
association constant Ka ([1]; Sugar chain No. 722): <1000 M⁻¹
association constant Ka ([1]; Sugar chain No. 723): <1000 M⁻¹
association constant Ka ([1]; Sugar chain No. 726): <1000 M⁻¹
association constant Ka ([1]; Sugar chain No. 727): <1000 M⁻¹
association constant Ka ([1]; Sugar chain No. 728 (as listed in Table 5/12)): <1000 M⁻¹
association constant Ka ([1]; Sugar chain No. 729): <1000 M⁻¹
association constant Ka ([1]; Sugar chain No. 730): <1000 M⁻¹
association constant Ka ([1]; Sugar chain No. 731): <1000 M⁻¹
association constant Ka ([1]; Sugar chain No. 739): <1000 M⁻¹
association constant Ka ([1]; Sugar chain No. 909): <1000 M⁻¹
association constant Ka ([1]; Sugar chain No. 910): <1000 M⁻¹
association constant Ka ([1]; Sugar chain No. 931): <1000 M⁻¹
association constant Ka ([1]; Sugar chain No. 932): <1000 M⁻¹
association constant Ka ([1]; Sugar chain No. 933): <1000 M⁻¹
binding to sugar chain not having L-fucose ([2]; FAC): not bound
association constant Ka ([2]; Sugar chain No. 001): <1000 M⁻¹
association constant Ka ([2]; Sugar chain No. 002): <1000 M⁻¹
association constant Ka ([2]; Sugar chain No. 003): <1000 M⁻¹
association constant Ka ([2]; Sugar chain No. 004): <1000 M⁻¹
association constant Ka ([2]; Sugar chain No. 005): <1000 M⁻¹
association constant Ka ([2]; Sugar chain No. 006): <1000 M⁻¹
association constant Ka ([2]; Sugar chain No. 007): <1000 M⁻¹
association constant Ka ([2]; Sugar chain No. 008): <1000 M⁻¹
association constant Ka ([2]; Sugar chain No. 009): <1000 M⁻¹
association constant Ka ([2]; Sugar chain No. 010): <1000 M⁻¹
association constant Ka ([2]; Sugar chain No. 011): <1000 M⁻¹
association constant Ka ([2]; Sugar chain No. 012): <1000 M⁻¹
association constant Ka ([2]; Sugar chain No. 013): <1000 M⁻¹
association constant Ka ([2]; Sugar chain No. 014): <1000 M⁻¹
association constant Ka ([2]; Sugar chain No. 101): <1000 M⁻¹
association constant Ka ([2]; Sugar chain No. 103): <1000 M⁻¹
association constant Ka ([2]; Sugar chain No. 104): <1000 M⁻¹
association constant Ka ([2]; Sugar chain No. 105): <1000 M⁻¹
association constant Ka ([2]; Sugar chain No. 107): <1000 M⁻¹
association constant Ka ([2]; Sugar chain No. 108): <1000 M⁻¹
association constant Ka ([2]; Sugar chain No. 301): <1000 M⁻¹
association constant Ka ([2]; Sugar chain No. 304): <1000 M⁻¹
association constant Ka ([2]; Sugar chain No. 305): <1000 M⁻¹
association constant Ka ([2]; Sugar chain No. 307): <1000 M⁻¹
association constant Ka ([2]; Sugar chain No. 308): <1000 M⁻¹
association constant Ka ([2]; Sugar chain No. 313): <1000 M⁻¹
association constant Ka ([2]; Sugar chain No. 314): <1000 M⁻¹
association constant Ka ([2]; Sugar chain No. 323): <1000 M⁻¹
association constant Ka ([2]; Sugar chain No. 501): <1000 M⁻¹
association constant Ka ([2]; Sugar chain No. 502): <1000 M⁻¹
association constant Ka ([2]; Sugar chain No. 503): <1000 M⁻¹
association constant Ka ([2]; Sugar chain No. 504): <1000 M⁻¹
association constant Ka ([2]; Sugar chain No. 701): <1000 M⁻¹
association constant Ka ([2]; Sugar chain No. 702): <1000 M⁻¹
association constant Ka ([2]; Sugar chain No. 703): <1000 M⁻¹
association constant Ka ([2]; Sugar chain No. 704): <1000 M⁻¹
association constant Ka ([2]; Sugar chain No. 705): <1000 M⁻¹
association constant Ka ([2]; Sugar chain No. 706): <1000 M⁻¹
association constant Ka ([2]; Sugar chain No. 707): <1000 M⁻¹
association constant Ka ([2]; Sugar chain No. 708): <1000 M⁻¹
association constant Ka ([2]; Sugar chain No. 709): <1000 M⁻¹
association constant Ka ([2]; Sugar chain No. 710): <1000 M⁻¹
association constant Ka ([2]; Sugar chain No. 711): <1000 M⁻¹
association constant Ka ([2]; Sugar chain No. 712): <1000 M⁻¹
association constant Ka ([2]; Sugar chain No. 713): <1000 M⁻¹
association constant Ka ([2]; Sugar chain No. 715): <1000 M⁻¹
association constant Ka ([2]; Sugar chain No. 716): <1000 M⁻¹
association constant Ka ([2]; Sugar chain No. 717): <1000 M⁻¹
association constant Ka ([2]; Sugar chain No. 724): <1000 M⁻¹
association constant Ka ([2]; Sugar chain No. 725): <1000 M⁻¹
association constant Ka ([2]; Sugar chain No. 728 (as listed in Table 7)): <1000 M⁻¹
association constant Ka ([2]; Sugar chain No. 732): <1000 M⁻¹
association constant Ka ([2]; Sugar chain No. 733): <1000 M⁻¹
association constant Ka ([2]; Sugar chain No. 734): <1000 M⁻¹
association constant Ka ([2]; Sugar chain No. 735): <1000 M⁻¹
association constant Ka ([2]; Sugar chain No. 736): <1000 M⁻¹
association constant Ka ([2]; Sugar chain No. 737): <1000 M⁻¹
association constant Ka ([2]; Sugar chain No. 738): <1000 M⁻¹
association constant Ka ([2]; Sugar chain No. 901): <1000 M⁻¹
association constant Ka ([2]; Sugar chain No. 902): <1000 M⁻¹
association constant Ka ([2]; Sugar chain No. 903): <1000 M⁻¹
association constant Ka ([2]; Sugar chain No. 905): <1000 M⁻¹
association constant Ka ([2]; Sugar chain No. 906): <1000 M⁻¹
association constant Ka ([2]; Sugar chain No. 907): <1000 M⁻¹
